biological target: T1, rat mGluR5 receptor (Rattus norvegicus, UniProt P31424); assay: mGluR5 assay on HEK-expressing rat mGluR5 (fluorescent cell based Ca2+ mobilization assay); conditions: HEK-293 cells stably expressing rat mGluR5; no co-addition of glutamate; mean of at least three independent experiments in duplicate; read-out: Ca++ Flux (mean EC50)
T1 construct: expressed in transfected cells
Protocol: Positive functional expression of HEK-293 cells stably expressing rat mGluR5 receptor was determined by measuring intracellular Ca^2+ changes using a Fluorometric Imaging Plate Reader (FLIPR, Molecular Devices, Sunnyvale, Calif.) in response to glutamate or selective known mGluR5 agonists and antagonists. Rat mGluR5 RT-PCR products in HEK-293 cells were sequenced and found 100% identical to rat mGluR5 Genbank reference sequence (NM_017012). HEK-293 cells expressing rmGluR5 were maintained in media containing DMEM, dialyzed Fetal Bovine Serum (10%), Glutamax™ (2 mM), Penicillin (100 units/ml), Streptomycin (100 μg/ml), Geneticin (100 μg/ml) and Hygromycin-B (40 μg/ml) at 37° C./5% CO2.
After one day of incubation, cells were washed with assay buffer containing: 142 mM NaCl, 6 mM KCl, 1 mM […], 1 mM CaCl2, 20 mM HEPES, 1 g/L glucose, 0.125 mM sulfinpyrazone, pH 7.4. After 60 min of loading with 4 uM Fluo-4 (TefLabs, Austin, Tex.), the cells were washed three times with 50 μl of PBS Buffer and resuspended in 45 μl of assay Buffer. The plates were then transferred to a Fluorometric Imaging Plate Reader (FLIPR, Molecular Devices, Sunnyvale, Calif.) for the assessment of intracellular calcium flux. After monitoring the baseline fluorescence for 10 seconds, increasing concentrations of representative compound (from 0.01 to 60 μM) of the present invention diluted in Assay Buffer (15 μl of 4× dilutions) was added to the cell. The final DMSO concentration in the assay was 0.3%. In each experiment, fluorescence was then monitored as a function of time for 3 minutes and the data analyzed using Microsoft Excel and GraphPad Prism. Each data point was also measured two times.
Under these experimental conditions, this HEK-rat mGluR5 cell line is able to directly detect positive allosteric modulators without the need of co-addition of glutamate or mGluR5 agonist.
The concentration-response curves of representative compounds of the present invention were generated using the Prism GraphPad software (Graph Pad Inc, San Diego, USA). The curves were fitted to a four-parameter logistic equation:
(Y=Bottom+(Top−Bottom)/(1+10̂((LogEC50−X)*Hill Slope)
allowing determination of EC50 values.
The Table 1 below represents the mean EC50 obtained from at least three independent experiments of selected molecules performed in duplicate.

T1 sequence (P31424 21-1171 isoform P31424-2 limits assumed): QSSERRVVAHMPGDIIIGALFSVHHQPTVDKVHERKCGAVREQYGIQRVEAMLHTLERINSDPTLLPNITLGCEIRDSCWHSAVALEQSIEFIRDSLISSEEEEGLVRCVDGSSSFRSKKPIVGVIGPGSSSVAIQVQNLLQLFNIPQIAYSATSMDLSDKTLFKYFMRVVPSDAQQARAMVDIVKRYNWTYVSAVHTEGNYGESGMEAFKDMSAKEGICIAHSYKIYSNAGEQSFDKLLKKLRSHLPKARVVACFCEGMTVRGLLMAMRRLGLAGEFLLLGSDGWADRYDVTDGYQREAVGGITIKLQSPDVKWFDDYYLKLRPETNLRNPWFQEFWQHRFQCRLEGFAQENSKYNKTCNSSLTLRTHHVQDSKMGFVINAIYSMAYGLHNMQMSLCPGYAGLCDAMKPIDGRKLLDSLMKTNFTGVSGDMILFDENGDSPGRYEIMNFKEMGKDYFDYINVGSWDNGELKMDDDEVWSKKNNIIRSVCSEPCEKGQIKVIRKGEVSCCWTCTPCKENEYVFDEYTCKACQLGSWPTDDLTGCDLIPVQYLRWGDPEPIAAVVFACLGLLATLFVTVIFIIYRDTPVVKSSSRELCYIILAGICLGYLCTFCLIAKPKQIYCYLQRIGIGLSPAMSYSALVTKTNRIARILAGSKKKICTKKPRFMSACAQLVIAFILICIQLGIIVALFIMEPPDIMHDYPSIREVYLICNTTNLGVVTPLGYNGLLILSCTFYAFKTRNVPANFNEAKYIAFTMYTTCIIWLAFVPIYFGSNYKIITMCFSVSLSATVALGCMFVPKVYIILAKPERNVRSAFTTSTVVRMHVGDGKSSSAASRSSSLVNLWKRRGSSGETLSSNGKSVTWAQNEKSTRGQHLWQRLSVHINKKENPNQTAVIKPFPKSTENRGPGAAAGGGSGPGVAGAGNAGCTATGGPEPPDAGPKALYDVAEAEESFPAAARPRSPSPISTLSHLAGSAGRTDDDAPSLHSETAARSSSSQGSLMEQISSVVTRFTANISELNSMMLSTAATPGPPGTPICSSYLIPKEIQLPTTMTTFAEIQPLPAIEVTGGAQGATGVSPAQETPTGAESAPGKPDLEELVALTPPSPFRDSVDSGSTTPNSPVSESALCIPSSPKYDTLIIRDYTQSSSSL

Structure (SMILES) | EC50 [µM]
O=C(c1ccc(F)cc1)N1CCC[C@H](c2noc(-c3cc(Cl)c[nH]3)n2)C1 [Example 39, {(S)-3-[5-(4-Chloro-1H-pyrrol-2-yl)-[1,2,4]oxadiazol-3-yl]-piperidin-1-yl}-(4-fluoro-phenyl)-methanone] | < 1
O=C(c1ccncc1F)N1CCC[C@H](c2nc(-c3cc(F)c[nH]3)no2)C1 [Example 70, (3-Fluoro-pyridin-4-yl)-{(S)-3-[3-(4-fluoro-1H-pyrrol-2-yl)-[1,2,4]oxadiazol-5-yl]-piperidin-1-yl}-methanone] | 1 to 10
Cc1c[nH]c(-c2noc([C@H]3CCCN(C(=O)c4ccncc4F)C3)n2)c1 [Example 71, (3-Fluoro-pyridin-4-yl)-{(S)-3-[3-(4-methyl-1H-pyrrol-2-yl)-[1,2,4]oxadiazol-5-Yl]-piperidin-1-yl}-methanone] | 1 to 10
O=C(c1ccnc(F)c1)N1CCC[C@H](c2nc(-c3cc(F)c[nH]3)no2)C1 [Example 53, (2-Fluoro-pyridin-4-yl)-{(S)-3-[3-(4-fluoro-1H-pyrrol-2-yl)-[1,2,4]oxadiazol-5-yl]-piperidin-1-yl}-methanone] | < 1
O=C(c1ccncc1F)N1CCC[C@H](c2noc(-c3cc(C(F)(F)F)c[nH]3)n2)C1 [Example 77, (3-Fluoro-pyridin-4-yl)-{(S)-3-[5-(4-trifluoromethyl-1H-pyrrol-2-yl)[1,2,4]oxadiazol-3-yl]-piperidin-1-yl}-methanone] | 1 to 10
O=C(c1ccc(F)nc1)N1CCC[C@H](c2nc(-c3cc(Cl)c[nH]3)no2)C1 [Example 65, {(S)-3-[3-(4-Chloro-1H-pyrrol-2-yl)-[1,2,4]oxadiazol-5-yl]-piperidin-1-yl}-(6-fluoro-pyridin-3-yl)-methanone] | 1 to 10
O=C(c1ccc(F)cc1)N1CCC[C@H](n2nnc(-c3ccc[nH]3)n2)C1 [Example 54, (4-Fluoro-phenyl)-{(S)-3-[5-(1H-pyrrol-2-yl)-tetrazol-2-yl]-piperidin-1-yl}-methanone] | < 1
Cc1c[nH]c(-c2noc([C@H]3CCCN(C(=O)c4ccnc(F)c4)C3)n2)c1 [Example 34, (2-Fluoro-pyridin-4-yl)-{(S)-3-[3-(4-methyl-1H-pyrrol-2-yl)-[1,2,4]oxadiazol-5-yl]-piperidin-1-yl}-methanone] | < 1
O=C(c1ccc(F)cc1)N1CCC[C@H](c2noc(-c3nc(C(F)(F)F)c[nH]3)n2)C1 [Example 55, (4-Fluoro-phenyl)-{(S)-3-[5-(4-trifluoromethyl-1H-imidazol-2-yl)-[1,2,4]oxadiazol-3-yl]-piperidin-1-yl}-methanone] | 1 to 10
O=C(c1ccc(F)cc1)N1CCC[C@H](c2nc(-c3cc(Br)c[nH]3)no2)C1 [Example 45, {(S)-3-[3-(4-Bromo-1H-pyrrol-2-yl)-[1,2,4]oxadiazol-5-yl]-piperidin-1-yl}-(4-fluoro-phenyl)-methanone] | < 1
O=C(c1ccc(F)cc1)N1CCCC(c2noc(-c3ncc[nH]3)n2)C1 (centres unmarked) [Example 17, (4-Fluoro-phenyl)-{3-[5-(1H-imidazol-2-yl)-[1,2,4]oxadiazol-3-yl]-piperidin-1-yl}-methanone] | 1 to 10
O=C(c1ccc(F)nc1)N1CCC[C@H](c2noc(-c3cc(F)c[nH]3)n2)C1 [Example 64, (6-Fluoro-pyridin-3-yl)-{(S)-3-[5-(4-fluoro-1H-pyrrol-2-yl)-[1,2,4]oxadiazol-3-yl]-piperidin-1-yl}-methanone] | 1 to 10
O=C(c1ccc(F)cc1)N1CCC[C@H](c2nc(-c3ncc[nH]3)no2)C1 [Example 24, (4-Fluoro-phenyl)-{(S)-3-[3-(1H-imidazol-2-yl)-[1,2,4]oxadiazol-5-yl]-piperidin-1-yl}-methanone] | 1 to 10
CC1(C)CC(c2nc(-c3ccc[nH]3)no2)CN(C(=O)c2ccc(F)cc2)C1 (centres unmarked) [Example 49, {3,3-Dimethyl-5-[3-(1H-pyrrol-2-yl)-[1,2,4]oxadiazol-5-yl]-piperidin-1-yl}-(4-fluoro-phenyl)-methanone] | 1 to 10
Cc1oncc1C(=O)N1CCC[C@H](c2noc(-c3cc(Cl)c[nH]3)n2)C1 [Example 42, {(S)-3-[5-(4-Chloro-1H-pyrrol-2-yl)-[1,2,4]oxadiazol-3-yl]-piperidin-1-yl}-(5-methyl-isoxazol-4-yl)-methanone] | < 1
Cc1c[nH]c(-c2noc([C@H]3CCCN(C(=O)c4ccc(F)nc4)C3)n2)c1 [Example 33, (6-Fluoro-pyridin-3-yl)-{(S)-3-[3-(4-methyl-1H-pyrrol-2-yl)-[1,2,4]oxadiazol-5-yl]-piperidin-1-yl}-methanone] | < 1
O=C(c1ccc(F)cc1)N1CCC[C@H](c2nc(-c3cc4ccccc4[nH]3)no2)C1 [Example 16, (4-Fluoro-phenyl)-{(S)-3-[3-(1H-indol-2-yl)-[1,2,4]oxadiazol-5-yl]-piperidin-1-yl}-methanone] | 1 to 10
O=C(c1ccnc(F)c1)N1CCC[C@H](c2noc(-c3cc(Cl)c[nH]3)n2)C1 [Example 41, {(S)-3-[5-(4-Chloro-1H-pyrrol-2-yl)-[1,2,4]oxadiazol-3-yl]-piperidin-1-yl}-(2-fluoro-pyridin-4-yl)-methanone] | < 1
O=C(c1ccc(F)c(F)c1)N1CCC[C@H](c2nc(-c3ccc[nH]3)no2)C1 [Example 3, (3,4-Difluoro-phenyl)-{(S)-3-[3-(1H-pyrrol-2-yl)-[1,2,4]oxadiazol-5-yl]-piperidin-1-yl}-methanone] | < 1
Cc1c[nH]c(-c2nc([C@H]3CCCN(C(=O)c4cnoc4C)C3)no2)c1 [Example 29, (5-Methyl-isoxazol-4-yl)-{(S)-3-[5-(4-methyl-1H-pyrrol-2-yl)-[1,2,4]oxadiazol-3-yl]-piperidin-1-yl}-methanone] | < 1
O=C(c1ccnc(F)c1)N1CCC[C@H](c2nc(-c3cc(Cl)c[nH]3)no2)C1 [Example 66, {(S)-3-[3-(4-Chloro-1H-pyrrol-2-yl)-[1,2,4]oxadiazol-5-yl]-piperidin-1-yl}-(2-fluoro-pyridin-4-yl)-methanone] | 1 to 10
O=C(c1ccc(F)cc1)N1CCC[C@H](c2nc(-c3cc(Cl)c[nH]3)no2)C1 [Example 43, {(S)-3-[3-(4-Chloro-1H-pyrrol-2-yl)-[1,2,4]oxadiazol-5-yl]-piperidin-1-yl}-(4-fluoro-phenyl)-methanone] | < 1
Cc1c[nH]c(-c2nc([C@H]3CCCN(C(=O)c4ccc(F)nc4)C3)no2)c1 [Example 28, (6-Fluoro-pyridin-3-yl)-{(S)-3-[5-(4-methyl-1H-pyrrol-2-yl)-[1,2,4]oxadiazol-3-yl]-piperidin-1-yl}-methanone] | < 1
O=C(c1ccnc(F)c1)N1CCC[C@H](c2noc(-c3cc(F)c[nH]3)n2)C1 [Example 60, (2-Fluoro-pyridin-4-yl)-{(s)-3-[5-(4-fluoro-1H-pyrrol-2-yl)-[1,2,4]oxadiazol-3-yl]-piperidin-1-yl}-methanone] | < 1
Cc1c[nH]c(-c2noc([C@H]3CCCN(C(=O)c4cnoc4C)C3)n2)c1 [Example 35, (5-Methyl-isoxazol-4-yl)-{(S)-3-[3-(4-methyl-1H-pyrrol-2-yl)-[1,2,4]oxadiazol-5-yl]-piperidin-1-yl}-methanone] | < 1
Cc1c[nH]c(-c2noc([C@H]3CCCN(C(=O)c4ccc(F)c(F)c4)C3)n2)n1 [Example 79, (3,4-Difluoro-phenyl)-{(S)-3-[3-(4-methyl-1H-imidazol-2-yl)-[1,2,4]oxadiazol-5-yl]-piperidin-1-yl}-methanone] | 1 to 10

Reference: patent publication US20090203737A1, “Pyrrole Derivatives as Positive Allosteric Modulators of Metabotropic Receptors” (priority 2005, published 2009)
